Patent US20260364181A1, “AKR1C3 Targeted Heterobifunctional Small Molecule Proteolysis Targeting Chimeras” (BOARD OF REGENTS OF THE UNIVERSITY OF NEBRASKA, priority 2022, published 2026)

Legend:
[1] = system: ARv7; assay: ARv7 protein degradation in 22Rv1 prostate cancer cells (Western blot); type: cell-based
Procedure: Protein Expression via Western Blot. 22Rv1 cells were seeded in a 6-well plate and incubated overnight. Next day, the cells were treated with varying concentrations of 6 (1 and 10 μM) and 5 (0.5, 1, 10, 50, 100, 250, and 500 nM; 1, 10, and 50 μM) for 24 hours and 5 (1 and 10 nM) at different time points (0, 2, 4, 6, 12, 16, 24, 48, and 72 h). Whole cell lysates were extracted in RIPA lysis buffer containing protease inhibitor and EDTA (Fisher Scientific, PI78440). Protein concentrations in each sample was estimated following BCA assay (Pierce™ BCA protein assay kit, Fisher Scientific, PI23227) as per the manufacturer's protocol. Proteins were standardized using RIPA lysis buffer with Laemelli SDS sample buffer (Thermo Scientific, AAJ61337AC) and heated at 1000C for 15 minutes. The proteins were resolved on a 4-12% premade gel (Invitrogen, NW04120BOX) at 60-90 V in 20× Bolt™ MES SDS running buffer (Fisher Scientific, B000202) and transferred onto a nitrocellulose membrane (Invitrogen, IB23001) using iBlot 2. The membranes were blocked with 2.5% non-fat dry milk (Bio-Rad, 1706404) for 1 h, and the membrane was incubated overnight on a rocking platform at 4 °C with the desired primary antibodies against AKR1C3 (mouse mAb, 1:200, Sigma, A6229), AKR1C1/C2 (rabbit mAb, 1:500, Abcam, ab179448), ARv7 (rabbit mAb, 1:500, Abcam, ab198394) and actin (mouse mAb, 1:1,000, ThermoFisher, MA5-11869). The membranes were washed three times, 10 minutes each, with 1×Tris-buffered saline (TBST, Bio-Rad, 1706435) in 0.1% Tween 20, on a rocking platform wherein they were incubated with rabbit anti-mouse IgG (ThermoFisher, 31450) or goat anti-rabbit IgG (Jackson ImmunoResearch, 111-035-003) secondary antibody (1:1,000) horseradish peroxidase conjugate for 1 hour. […] Bands were quantified by densitometry using ImageJ software and fold change in AKR1C3, AKR1C1/C2, and ARv7 protein expression was determined based on actin controls. […]

[2] = target: T1, AKR1C3 (Homo sapiens, UniProt P42330); assay: AKR1C3 protein degradation in 22Rv1 prostate cancer cells (Western blot); type: cell-based; design: 22Rv1 prostate cancer cells that express high levels of AKR1C3; host or cells: 22Rv1
T1 sequence (P42330 1-323): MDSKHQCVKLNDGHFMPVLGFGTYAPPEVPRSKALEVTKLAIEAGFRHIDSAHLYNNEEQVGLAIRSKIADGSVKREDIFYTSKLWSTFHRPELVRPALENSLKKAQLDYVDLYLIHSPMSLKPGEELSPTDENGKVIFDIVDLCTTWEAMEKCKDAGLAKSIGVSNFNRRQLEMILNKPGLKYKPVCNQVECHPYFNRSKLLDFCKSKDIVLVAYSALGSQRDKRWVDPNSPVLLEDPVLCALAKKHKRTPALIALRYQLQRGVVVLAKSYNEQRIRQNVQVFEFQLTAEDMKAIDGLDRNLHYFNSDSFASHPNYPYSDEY
Procedure: Protein Expression via Western Blot. 22Rv1 cells were seeded in a 6-well plate and incubated overnight. Next day, the cells were treated with varying concentrations of 6 (1 and 10 μM) and 5 (0.5, 1, 10, 50, 100, 250, and 500 nM; 1, 10, and 50 μM) for 24 hours and 5 (1 and 10 nM) at different time points (0, 2, 4, 6, 12, 16, 24, 48, and 72 h). Whole cell lysates were extracted in RIPA lysis buffer containing protease inhibitor and EDTA (Fisher Scientific, PI78440). Protein concentrations in each sample was estimated following BCA assay (Pierce™ BCA protein assay kit, Fisher Scientific, PI23227) as per the manufacturer's protocol. Proteins were standardized using RIPA lysis buffer with Laemelli SDS sample buffer (Thermo Scientific, AAJ61337AC) and heated at 1000C for 15 minutes. The proteins were resolved on a 4-12% premade gel (Invitrogen, NW04120BOX) at 60-90 V in 20× Bolt™ MES SDS running buffer (Fisher Scientific, B000202) and transferred onto a nitrocellulose membrane (Invitrogen, IB23001) using iBlot 2. The membranes were blocked with 2.5% non-fat dry milk (Bio-Rad, 1706404) for 1 h, and the membrane was incubated overnight on a rocking platform at 4 °C with the desired primary antibodies against AKR1C3 (mouse mAb, 1:200, Sigma, A6229), AKR1C1/C2 (rabbit mAb, 1:500, Abcam, ab179448), ARv7 (rabbit mAb, 1:500, Abcam, ab198394) and actin (mouse mAb, 1:1,000, ThermoFisher, MA5-11869). The membranes were washed three times, 10 minutes each, with 1×Tris-buffered saline (TBST, Bio-Rad, 1706435) in 0.1% Tween 20, on a rocking platform wherein they were incubated with rabbit anti-mouse IgG (ThermoFisher, 31450) or goat anti-rabbit IgG (Jackson ImmunoResearch, 111-035-003) secondary antibody (1:1,000) horseradish peroxidase conjugate for 1 hour. The membranes were again washed three times with 1×TBST, upon which they were exposed to LI-COR WesternSure PREMIUM chemiluminescent substrate (Fisher Scientific, 50-489-552) and developed in a dark room with Konica Minolta equipment. Bands were quantified by densitometry using ImageJ software and fold change in AKR1C3, AKR1C1/C2, and ARv7 protein expression was determined based on actin controls. […]
The AKR1C3 degradation effect of PROTAC 5 was screened across a range of concentrations to identify a suitable treatment protocol. 22Rv1 cells were treated with increasing concentrations of […], DMSO or lenalidomide 6 at 1 μM and 10 μM for 24 hours, and the degradation profile was determined by Western blot analysis with antibody for AKR1C3.

[3] = 10 nM, 2 hour pretreatment with MG132 (3 μM), in words

DC50 ([1]; 72 hours, read-out: ARv7 DC50 (half-maximal degradation concentration)): 70 nM | mean AKR1C3 degradation ([2]; 0.5 nM, 24 h, in words): no degradation | time course of AKR1C3 levels ([2]; 1 nM, 24 through 72 hours post-treatment, in words): time-dependent decrease in AKR1C3 levels | onset of decrease in AKR1C3 levels ([2]; 1 nM, post-treatment): 24 h | degradation of AKR1C3 (in words) ([2]; 10 nM, 0-72 h): significant degradation | AKR1C3 degradation after proteasome inhibitor pretreatment [2, 3]: effectively blocked | AKR1C3 degradation compared with Compound 3 ([2]; 10 nM, 72 hour incubation, in words): outperformed Compound 3 | onset of AKR1C3 degradation ([2]; 10 nM, post-treatment): 4 h | AKR1C3 expression ([2]; 1-50 μM, 24 h, in words): increased AKR1C3 expression | Dmax at 0.01 µM ([2]; 22Rv1, 10 nM, 72 hours, read-out: maximal degradation of AKR1C3): ~75% | AKR1C3 expression ([2]; 100-500 nM, 24 h, in words): increased AKR1C3 expression
SMILES: O=C(O)/C=C/c1cc(C(=O)NCc2ccc(OCc3cn(CCOCCOCC(=O)Nc4cccc5c4CN(C4CCC(=O)NC4=O)C5=O)nn3)cc2)cc(-c2ccccc2)c1 (centres unmarked) [Compound IA, (E)-3-(5-((4-((1-(2-(2-(2-((2-(2,6-dioxopiperidin-3-yl)-1-oxoisoindolin-4-yl)amino)-2-oxoethoxy)ethoxy)ethyl)-1H-1,2,3-triazol-4-yl)methoxy)benzyl)carbamoyl)-[1,1 ? biphenyl]-3-yl)acrylic acid]
ARv7 expression after proteasome inhibitor pretreatment [1, 3]: not affected | ARv7 expression ([1]; 10 nM, 72 hours, in words): almost complete amelioration of ARv7 expression | AKR1C3 protein expression ([2]; 10 nM, 4 hours of treatment, in words): effectively reduced AKR1C3 protein expression
